In patent US20200181284A1, “EPIGENETIC INHIBITORS FOR SENSITIZING HEMATOLOGIC OR OTHER MALIGNANCIES TO GLUCOCORTICOID THERAPY” (UNIVERSITY OF SOUTHERN CALIFORNIA, priority 2017, published 2020):

How the values were obtained:
[1] = test system: relapsed B-ALL cells (ALL121); assay: PDX model of ALL: NSG mice engrafted with ALL121, spleen size and human ALL cells in spleen; assay type: in vivo; conditions: dex monotherapy 7.5 mg/kg daily, two weeks
Description: As proof of concept, we tested this combination in a PDX model of ALL.

NALM-6 = assay: Cell death assay (PrestoBlue viability, 3 days); assay type: cell-based; conditions: Homo sapiens
Experimental: Cell death assays: We used PrestoBlue to measure cell viability in response to knockdown and treatment. Cells were grown to a density of 250,000 cell/ml, then dispensed into black tissue culture plates and grown overnight. In the morning, cells were treated. For both CAL-101 (Selleckchem, S2226) and dex (Sigma, D4902), viability was measured after 3 days. As PrestoBlue measures NADPH/NADH metabolites, the balance of which can be affected by GC treatment, we performed frequent cell count spot checks manually by trypan blue exclusion to ensure that fluorescence measurements reflected true viability. Both CAL-101 and dex were dissolved in ethanol, and used 1:1000 in cell culture for a final ethanol concentration of 0.1%. […] Viabilities and EC50 were then calculated using four parameter non-least squares fitting using Prism 6. qPCR of Causative genes: Cells were grown to a density of 1 million cells/ml, then aliquoted into 6 well plates in the afternoon, then grown overnight. […]
The optimal signal was determined by incubating cells with 1 ^M dex for 0, 4, 8, and 24 hours. […] Each experiment was performed at least three times, and analyzed using GraphPad (Prism 6). Significant differences between drug and control and between either drug alone and combinations was determined by two sided Student's t-test (P-Value<0.05). […]

NALM-6 cells = assay: shRNA screen: selection of infected NALM-6 cells with dex, viability after each round; assay type: cell-based, human; conditions: for viability at 0.05 µM: Homo sapiens, 50 nM dexamethasone
Experimental: Transduction: NALM-6 cells were grown in T-175 flasks maintaining a cell density below 2 million cells/ml until a sufficient number of cells were obtained. In order to obtain a sufficient number of cells infected with each shRNA to measure both enrichment and depletion in response to dex selection, we sought to infect >1000 cells with each shRNA. In order to minimize double infection, we targeted an infection rate of ˜30%. For the Cancer library, we estimated that for 1000× coverage of 54,775 shRNAs at a 30% infection rate, we would have to start with ˜200 million cells. To ensure optimal infection, NALM-6 cells were plated at density of 1.5 million cells/ml in 6 well plates. Virus was added at a ratio of 1:10 viral supernatant/NALM-6 culture volume. Cells were the spinfected at 1000×g, 33° C., for 2 hours in the presence of 8 µg/ml polybrene. Cells were then washed in PBS, resuspended in fresh RPMI+10% FBS, and allowed to recover. Our actual infection rate was ˜70%, as measured by flow cytometry using the mCherry marker of the pMK1098 vector, for an approximate coverage of 2000 cells for each shRNA. Cells were then selected for infection using 0.5 µg/ml puromycin for 2 days, washed, and allowed to recover. The infected cells were then expanded and split into 5 pools: Infected (Time 0 or T0), Infected that would be untreated (TF), and three pools that would be treated with dex (R1-3). T0 and TF was composed of 100 million cells. T0 was frozen immediately, and TF was allowed to grow to a density no greater than 3 million cells/ml through the course of the experiment. Since we expected ˜80% death upon treatment, we started with 500 million cells each for R1-3.
Selection: Previous attempts at the screen had been hampered by inconsistent infection and selection with dex. We therefore decided to split TF and R1-3 into two experiments and treat with 50 nM dex, which kills ˜80% of NALM-6 cells in 3 days, and 1 pM dex, which kills >90%. TF samples were treated with equal volumes of DMSO vehicle. A separate TF sample was culture for both the 50 nM and 1 pM experiments. Cells were treated with each of these concentrations for three days, washed, allowed to recover, then treated two more times. From infection to the end of the experiment took 35 days for 50 nM dex and 46 days for 1 pM.
AGEK Screen: Based on the results of the Cancer panel screen, we elected to screen the three other panels (Apoptosis, Gene Expression, Kinases) under 50 nM selection by dex. The screen was performed largely as described above, but our infection rate was <30% for a coverage of ˜900 cells/shRNA.

SUP-B15 = assay: Cell death assay (PrestoBlue viability, 3 days); assay type: cell-based, human; conditions: Homo sapiens
Experimental: (§1) Cell death assays: We used PrestoBlue to measure cell viability in response to knockdown and treatment. Cells were grown to a density of 250,000 cell/ml, then dispensed into black tissue culture plates and grown overnight. In the morning, cells were treated. For both CAL-101 (Selleckchem, S2226) and dex (Sigma, D4902), viability was measured after 3 days. As PrestoBlue measures NADPH/NADH metabolites, the balance of which can be affected by GC treatment, we performed frequent cell count spot checks manually by trypan blue exclusion to ensure that fluorescence measurements reflected true viability. Both CAL-101 and dex were dissolved in ethanol, and used 1:1000 in cell culture for a final ethanol concentration of 0.1%. Combination treatments were performed in triplicate in 384 well plates with 20 dilutions of dex from 10^M to 0 and 9 dilutions of CAL-101 from 10^M to 0. Viabilities and EC50 were then calculated using four parameter non-least squares fitting using Prism 6. qPCR of Causative genes: Cells were grown to a density of 1 million cells/ml, then aliquoted into 6 well plates in the afternoon, then grown overnight. Cells were then treated with the drugs and times indicated, at which point cells were spun down at 400 g for 5 minutes, the medium aspirated, and the pellet resuspended in 0.7 ml Qiazol/Trizol and frozen. RNA was then isolated using the miRNAeasy protocol. cDNA was then prepared form 1^g of RNA suing SuperScript3, and qPCR performed using BioRad iQ mix. Primers for qPCR were designed using the IDT web site, then tested for each gene. […] Expression levels for each gene were corrected for primer efficiency, normalized to RPL19, then compared to controls (Pfaffl, 2001).
(§2) The optimal signal was determined by incubating cells with 1 ^M dex for 0, 4, 8, and 24 hours. […] Cells were incubated with dex alone, CAL-101 alone, and in combination for 24 hours, then harvested and qPCR performed as described above. Each experiment was performed at least three times, and analyzed using GraphPad (Prism 6). Significant differences between drug and control and between either drug alone and combinations was determined by two sided Student's t-test (P-Value<0.05).
(§3) Three cell lines (NALM6, SUP-B15, and RCH-ACV), one resistant patient sample (HM3101), and one relapsed Phlike xenograft (ALL121) were incubated with increasing concentrations of dex or CAL-101 for 3 days. Cell viability was measured by PrestoBlue staining. Curves, values, and errors are based on at least 3 replicates. Bar plot of the EC50, calculated by four-parameter least-squares fitting (Both plotted and calculated in GraphPad Prism).

RCH-ACV = assay: Cell death assay (PrestoBlue viability, 3 days); assay type: cell-based, human
Experimental: as §1, §2, §3

[2] = test system: LAX7R and LAX56 primary human B-ALL cells; assay: Survival of primary B-ALL cells co-cultured with OP-9 feeder cells (Annexin V/7AAD); assay type: cell-based; conditions: 100-200 nM Dex alone, 3 or 5 days
Experimental: Primary ALL cells (LAX7R and LAX56) were established from mouse xenografts derived from patient samples (Adam et al., 2017; Hsieh et al., 2013). They were cultured in 24 well tissue-culture plates on irradiated OP-9 cells with growth medium containing MEM-α with 20% heat-inactivated fetal bovine serum, and 100 IU/ml penicillin and 100 μg/ml streptomycin. On day 3 and day 5 after the addition of drugs, ALL cells were collected, and apoptosis was assessed using PE Annexin V Apoptosis Detection Kit with 7-AAD.
As shown FIGS. 41A-1, 41A-2, 41B-1, and 41B-2, LAX7R (FIGS. 41A-1 and 41A-2) or LAX56 (FIGS. 41B-1 and 41B-2) primary human B-ALL cells were co-cultured with OP-9 feeder cells for 3 days (left) or 5 days (right) in the presence of the indicated drugs, and cell survival was determined by staining with Annexin/7AAD. p-value was calculated using a paired t-test, and different symbols were used to indicate p-values between different groups.+indicates statistical significance (+p≤0.05, ++p≤0.01 and + + + p≤0.001) between Dexamethasone or AZD2811 treated group and DMSO control group; # indicates statistical significance (#p≤0.05, ##p≤0.01 and # # # p≤0.001) between AZD2811+Dexamethasone combination group and AZD2811 group; * indicates statistical difference (*p≤0.05, **p≤0.01, * * *p≤0.001) between combination group and respective Dexamethasone treated groups. Values shown are mean and SD for 3 biological replicates, which are representative of 3 independent experiments.

C[C@@H]1C[C@H]2[C@@H]3CCC4=CC(=O)C=C[C@]4(C)[C@@]3(F)[C@@H](O)C[C@]2(C)[C@@]1(O)C(=O)CO [dex, dexamethasone]
effect on spleens (spleen size) [1]: no effect | EC50 (NALM-6; NALM-6, 72 h, NALM6, viability after 3 days, read-out: EC50 for dex): 3.9 nM | EC90 (NALM-6; NALM-6, read-out: approximately the EC90 for dex): ~62.5 nM | NALM-6 cells killed (NALM-6 cells; 1 pM dex): > 90% | NALM-6 cells killed (NALM-6 cells; 50 nM dex, 3 days): ~80% | viability at 0.05 µM (NALM-6 cells; NALM-6, Apoptosis, Gene Expression, and Kinase Panels, treatment number 1): 52% | viability at 0.05 µM (NALM-6 cells; NALM-6, Apoptosis, Gene Expression, and Kinase Panels, treatment number 2): 66% | viability at 0.05 µM (NALM-6 cells; NALM-6, Apoptosis, Gene Expression, and Kinase Panels, treatment number 3): 65% | viability at 0.05 µM (NALM-6 cells; NALM-6, Cancer Panel, treatment number 1): 18% | viability at 0.05 µM (NALM-6 cells; NALM-6, Cancer Panel, treatment number 2): 72% | viability at 0.05 µM (NALM-6 cells; NALM-6, Cancer Panel, treatment number 3): 58% | EC50 (SUP-B15; 72 h, SUP-B15, viability after 3 days, read-out: EC50 for dex): 1.6 nM | EC90 (SUP-B15; SUP-B15, read-out: approximately the EC90 for dex): ~4 nM | EC50 (RCH-ACV; Homo sapiens, 72 h, viability after 3 days, estimate, read-out: EC50 for dex): 500 nM | viability maintained (RCH-ACV; even at the highest dex concentrations): ~50% | cell survival [2]: 20-60%
